Test [1] has as its target His-tagged KRAS G12D protein (Homo sapiens (Human), UniProt P01116, G12D). The test is described as follows: KRAS G12D TR-FRET Assay. The class given is binding. The note with it: read-out: KRAS G12D Binding IC50. The essentials:
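His-tagged KRAS G12D (diluted to 20 nM in pH 7.4 HEPES buffer with 10 mM MgCl2 and 10 μM GDP) was preincubated with titrated compound for 30 min at room temperature. Biotinylated KRPep-2d peptide (diluted to 20 nM) was then added for 1 h, and displacement was monitored by TR-FRET.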
(In general: TR-FRET usually uses a lanthanide donor and a delayed reading to cut background.)

Test [2] deals with GDP-bound KRAS protein (aa 1-169), containing both G12D and C118A amino acid substitutions (Homo sapiens (Human), UniProt P01116, C118A/G12D). The test is described as follows: KRAS G12D Coupled Nucleotide Exchange Assay. The class given is biochemical. As to conditions: read-out: KRAS G12D Coupled Exchange IC50.
GDP-bound KRAS protein (aa 1-169), containing both G12D and C118A amino acid substitutions, sequence (P01116 other isoform, or with tags, fused parts or gaps G12D/C118A): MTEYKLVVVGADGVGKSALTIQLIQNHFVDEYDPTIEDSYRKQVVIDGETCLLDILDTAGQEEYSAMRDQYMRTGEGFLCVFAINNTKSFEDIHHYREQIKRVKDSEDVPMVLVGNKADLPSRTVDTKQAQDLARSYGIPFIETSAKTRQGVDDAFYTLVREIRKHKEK
Test [3] deals with Phosphorylation of ERK1/2 in AsPC-1 cells. The test is described as follows: Phospho-ERK1/2 MSD Assay. In kind it is cell-based, human. The note with it: read-out: 2 h p-ERK (AsPC-1 cells), IC50. The essentials:
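Read-out: MSD electrochemiluminescent detection of phosphorylated ERK1/2 in whole-cell lysates, fitted to a 4-parameter logistic curve for IC50. Prior to lysis, AsPC-1 cells (25,000 per well) received a 2 h compound dose-response at 37 °C.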

Test [4] has as its system p-ERK in PANC 04.03 tumor-bearing mice. The test is described as follows: Tumor Pharmacodynamic Assay (p-ERK inhibition in PANC 04.03 tumors). The note with it: Mus musculus; PANC 04.03 tumor-bearing female athymic nude mice; single oral dose 100 mg/kg; tumors harvested 2 hr later; relative to vehicle group. The class given is in vivo. As to the method: Tumor Pharmacodynamic Assays
Inhibitor pharmacodynamic effects were assessed in PANC 04.03 tumor-bearing mice. PANC 04.03 tumor cells (5.0E+06 cells) were injected subcutaneously into the flank of female athymic nude mice in a mixture with Matrigel (BD Bioscience). Mice received a single oral dose of either vehicle or inhibitor (100 mg/kg) when the average tumor size reached -300-600 mm^3 (n=3/group) and harvested 2 hours later. Tumor samples were collected, snap frozen, and processed for analysis by pulverizing with a cryoPREP® Dry Impactor (Covaris). Pulverized samples were resuspended in RIPA lysis buffer containing protease and phosphatase inhibitors and homogenized. Cleared lysates were analyzed using phospho-ERK1/2 and total ERK1/2 whole cell lysate kits (Meso Scale Discovery) according to the manufacturer's protocol. Phospho-ERK1/2 signal was normalized to total ERK1/2 signal for a given sample, and percent inhibition of p-ERK was calculated relative to the vehicle group.

Another test relates to AsPC-1 cells. The test is described as follows: AsPC-1 CTG Assay (CellTiter-Glo cell viability). In kind it is cell-based, human. The note with it: AsPC-1, 72 h, first value of the cell, read-out: G12D/C/V Cell Proliferation CTG (72 h) AsPC-1. The essentials: (§1)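 Human pancreatic AsPC-1 or colon SW620 cells in RPMI 1640 with 10% FBS, seeded overnight, then exposed to serially diluted compound for 72 h at 37 °C. CellTiter-Glo luminescence normalized to DMSO control; IC50 from a 4-parameter logistic model.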
In general terms: ATP-based viability assays read luminescence as a measure of living cells.

The test system of another test is SW620 cells. The test is described as follows: SW620 CTG Assay (CellTiter-Glo cell viability). In kind it is cell-based, human. As to conditions: SW620, 72 h, third value of the cell, read-out: G12D/C/V Cell Proliferation CTG (72 h) SW620. The essentials:
as §1

The test system of another test is MIA PaCa-2 cells. Briefly: MIA PaCa-2 CTG Assay (CellTiter-Glo cell viability). As to conditions: Mia PaCa-2, 72 h, second value of the cell, read-out: G12D/C/V Cell Proliferation CTG (72 h) Mia PaCa-2. In kind it is cell-based, human. The essentials: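 Human pancreatic carcinoma cells in RPMI 1640 with 10% FBS, seeded at 1.67E+04 cells/mL and left overnight, were treated with serially diluted compound for 72 h at 37° C, 5% CO2. Viability was read by CellTiter-Glo luminescence normalized to DMSO; IC50 came from a 4-parameter logistic fit.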

Read-outs that look alike come from different tables or passages of the source.

His-tagged KRAS G12D protein, sequence (P01116 other isoform, or with tags, fused parts or gaps G12D): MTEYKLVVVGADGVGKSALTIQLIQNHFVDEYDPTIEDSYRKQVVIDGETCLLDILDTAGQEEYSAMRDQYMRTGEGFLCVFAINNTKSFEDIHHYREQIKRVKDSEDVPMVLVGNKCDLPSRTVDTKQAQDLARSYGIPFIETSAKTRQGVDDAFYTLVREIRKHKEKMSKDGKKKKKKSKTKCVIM

Usually inhibition in vivo stands for the relative decrease from the control value, in per cent. A high value points to strong suppression. In the case of `C[C@@]12CCCN(C1)c1nc(OC[C@@]34CCCN3C[C@H](F)C4)nc3c(F)c(ncc13)-c1cccc3ccc(F)c(c13)CCCC(=O)N2` [Example 7, (15R)-22,31-Difluoro-8-(((2R,7aS)-2-fluorotetrahydro-1H-pyrrolo[1,2-a]pyrrol-7a(5H)-yl)methoxy)-15-methyl-3,7,9,11,16-pentaazahexacyclo[19.7.1.1˜2,6˜.1˜11,15˜.0˜5,10˜.0˜25,29˜]hentriaconta-1(28),2(31),3,5,7,9,21,23,25(29),26-decaen-17-one bis(2,2,2-trifluoroacetate)], the IC50 in test [1] is 15 nM; in test [2], 15 nM; in test [3] (Homo sapiens, ASPC1, 2 h) it was 260 nM. The inhibition in vivo at 100 mg/kg in test [4] is 21%.

Regarding `C[C@@]12CCCN(C1)c1nc(OC[C@@]34CCCN3C[C@H](F)C4)nc3c(F)c(c(F)cc13)-c1cc(O)cc3ccc(F)c(c13)CCCC(=O)N2` [Example 15, (15R)-3,22,31-Trifluoro-8-(((2R,7aS)-2-fluorotetrahydro-1H-pyrrolo[1,2-a]pyrrol-7a(5H)-yl)methoxy)-27-hydroxy-15-methyl-7,9,11,16-tetraazahexacyclo[19.7.1.1˜2,6˜.1˜11,15˜.0˜5,10˜.0˜25,29˜]hentriaconta-1(28),2(31),3,5,7,9,21,23,25(29),26-decaen-17-one bis(2,2,2-trifluoroacetate)], the IC50 in test [1] is 4 nM; in test [2], 3 nM; in test [3] (Homo sapiens, ASPC1, 2 h), 19 nM; in the test on AsPC-1 cells (Homo sapiens, ASPC1, 72 h), 141 nM; in the test with SW620 cells (Homo sapiens, SW-620), 80 nM. Also, the inhibition in vivo at 100 mg/kg in test [4] worked out at 0%.

In the case of `C[C@@]12CCCCN(C1)c1nc(OC[C@@]34CCCN3C[C@H](F)C4)nc3c(F)c(ncc13)-c1c(c(Cl)cc3[nH]ncc13)CCCCC(=O)N2` [Example 166, (26R)-18-chloro-32-fluoro-4-(((2R,7aS)-2-fluorotetrahydro-1H-pyrrolo[1,2-a]pyrrol-7a(5H)-yl)methoxy)-26-methyl-1,3,5,9,14,15,25-heptaazahexacyclo [24.4.1.1~6,10~.0~2,7~.0~11,19~.0~12,16~]dotriaconta-2,4,6,8,10(32),11,13,16,18-nonaen-24-one], the IC50 in test [1] is 5 nM; in test [2], 3 nM; in test [3] (Homo sapiens, ASPC1, 2 h), 16.2 nM; in the test on AsPC-1 cells (Homo sapiens, ASPC1, 72 h), 68 nM; in the test on MIA PaCa-2 cells (Homo sapiens), 90 nM. The same compound yielded an inhibition in vivo at 100 mg/kg in test [4] of 63%.

With `O=C1COCCCc2c(Cl)cc3[nH]ncc3c2-c2ncc3c(nc(OC[C@@]45CCCN4C[C@H](F)C5)nc3c2F)N2CC[C@H]3CCN1[C@H]3C2` [Example 168, (29S,33R)-18-chloro-34-fluoro-4-(((2R,7aS)-2-fluorotetrahydro-1H-pyrrolo[1,2-a]pyrrol-7a(5H)-yl)methoxy)-23-oxa-1,3,5,9,14,15,26-heptaazaheptacyclo[24.5.2.1~6,10~.0~2,7~.0~11,19~.0~12,16~.0~29,33~]tetratriaconta-2,4,6,8,10(34),11,13,16,18-nonaen-25-one], the IC50 in test [1] is 3 nM; in test [2], 1 nM; in test [3] (Homo sapiens, ASPC1, 2 h), 1.3 nM; in the test on AsPC-1 cells (Homo sapiens, ASPC1, 72 h), 10 nM; with SW620 cells (Homo sapiens, SW-620), 3 nM. The same compound registered an inhibition in vivo at 100 mg/kg in test [4] of 65%.

Consider `C[C@@]12COCCN(C1)c1nc(OCC34CCCN3CCC4)nc3c(F)c(ncc13)-c1c(c(Cl)cc3[nH]ncc13)CCCOC(=O)O2` [Example 209, (26S)-18-chloro-32-fluoro-26-methyl-4-(tetrahydro-1H-pyrrolo[1,2-a]pyrrol-7a(5H)-ylmethoxy)-23,25,28-trioxa-1,3,5,9,14,15-hexaazahexacyclo[24.4.1.1~6,10~.0~2,7~.0~11,19~.0~12,16~]dotriaconta-2,4,6,8,10(32),11,13,16,18-nonaen-24-one], for which the IC50 is 5 nM in test [1]; 3 nM in test [2]; 3.9 nM in test [3] (Homo sapiens, ASPC1, 2 h); 3 nM in the test on AsPC-1 cells (Homo sapiens, ASPC1, 72 h); 3 nM in the test with SW620 cells (Homo sapiens, SW-620). This compound also displayed an inhibition in vivo at 100 mg/kg in test [4] of 63%.

For the compound `O=C1OCCc2c(Cl)cc3[nH]ncc3c2-c2ncc3c(nc(OC[C@@]45CCCN4C[C@H](F)C5)nc3c2F)N2CCO[C@]3(C2)C[C@H](C3)O1` [Example 248, (1R,3R)-10-chloro-32-fluoro-24-(((2R,7aS)-2-fluorotetrahydro-1H-pyrrolo[1,2-a]pyrrol-7a(5H)-yl)methoxy)-4,6,30-trioxa-13,14,19,23,25,27-hexaazaheptacyclo[25.3.1.1~1,3~.1~18,22~.0~9,17~.0~12,16~.0~21,26~]tritriaconta-9,11,14,16,18(32),19,21,23,25-nonaen-5-one], the IC50 was found to be 4 nM in test [1]; 2 nM in test [2]; 7.8 nM in test [3] (Homo sapiens, ASPC1, 2 h); 13 nM in the test on AsPC-1 cells (Homo sapiens, ASPC1, 72 h); 7 nM in the test on MIA PaCa-2 cells (Homo sapiens). In test [4], this compound came in with an inhibition in vivo at 100 mg/kg of 85%.

Regarding `Fc1c2ncc3c(nc(OC[C@@]45CCCN4C[C@H](F)C5)nc13)N1CCC[C@]3(C1)C[C@H](C3)OCCCCc1c(Cl)cc3[nH]ncc3c1-2` [Example 260, (1S,3R)-10-Chloro-32-fluoro-24-(((2R,7aS)-2-fluorotetrahydro-1H-pyrrolo[1,2-a]pyrrol-7a(5H)-yl)methoxy)-4-oxa-13,14,19,23,25,27-hexaazaheptacyclo[25.3.1.1˜1,3˜.1˜18,22˜.0˜9,17˜.0˜12,16˜.0˜21,26˜]tritriaconta-9,11,14,16,18(32),19,21,23,25-nonaene bis(2,2,2-trifluoroacetate)], the IC50 amounted to 4 nM in test [1]; 2 nM in test [2]; 3.2 nM in test [3] (2 h); 40 nM in the test with AsPC-1 cells; 8 nM in the test on SW620 cells; 26 nM with MIA PaCa-2 cells.

For the compound `O=C1OCCCc2c(Cl)cc3[nH]ncc3c2-c2ncc3c(nc(OC[C@@]45CCCN4C[C@H](F)C5)nc3c2F)N2CCOC[C@](CF)(C2)O1` [Example 311, (26S)-18-chloro-32-fluoro-26-(fluoromethyl)-4-(((2R,7aS)-2-fluorotetrahydro-1H-pyrrolo[1,2-a]pyrrol-7a(5H)-yl)methoxy)-23,25,28-trioxa-1,3,5,9,14,15-hexaazahexacyclo[24.4.1.1~6,10~.0~2,7~.0~11,19~.0~12,16~]dotriaconta-2,4,6(32),7,9,11,13,16,18-nonaen-24-one], the IC50 in test [1] came to 5 nM; in test [2], 3 nM; in test [3] (Homo sapiens, ASPC1, 2 h), 4.2 nM; with AsPC-1 cells (Homo sapiens, ASPC1, 72 h) it was 36 nM; in the test with SW620 cells (Homo sapiens, SW-620), 6 nM; in the test with MIA PaCa-2 cells (Homo sapiens), 7 nM.

For the compound `O=C1OCCc2c(Cl)cc3[nH]ncc3c2-c2ncc3c(nc(OC[C@@]45CCCN4C[C@H](F)C5)nc3c2F)N2CCOC[C@]3(C2)C[C@H](C3)O1` [Example 316, (1R,3R)-10-chloro-33-fluoro-24-(((2R,7aS)-2-fluorotetrahydro-1H-pyrrolo[1,2-a]pyrrol-7a(5H)-yl)methoxy)-4,6,30-trioxa-13,14,19,23,25,27-hexaazaheptacyclo[25.4.1.1~1,3~.1~18,22~.0~9,17~.0~12,16~.0~21,26~]tetratriaconta-9,11,14,16,18(33),19,21,23,25-nonaen-5-one], the IC50 in test [1] is 4 nM; in test [2], 3 nM; in test [3] (Homo sapiens, ASPC1, 2 h), 6.7 nM; in the test on AsPC-1 cells (Homo sapiens, ASPC1, 72 h), 54 nM; in the test on SW620 cells (Homo sapiens, SW-620), 10 nM; in the test with MIA PaCa-2 cells (Homo sapiens), 13 nM.
